Laboratory results as given in PubChem BioAssay AID2060502 (Molecular Pharmacology Branch, DTP, NCI, 2025).

System: 885724-159-R-J1-PDC complex spheroid viability
Test: Anticancer human tumor 885724-159-R-J1-PDC patient-derived pancreatic adenocarcinoma cell line growth inhibition [GQUAD]
Conditions: for IC50: curve of first compound; for viability, T/C: stronger effect = lower value
Summary of the method: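 Multi-cell-type spheroids of tumor cells with HUVEC and mesenchymal stem cells, treated with drug combinations. Concentrations descend in half-log steps from near clinical Cmax, or from 10 microM where Cmax is unknown; viability read-out.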

[1] = second compound 0.0316 µM, first compound 0.0316 µM
[2] = second compound 0.0316 µM, first compound 0.1 µM
[3] = second compound 0.0316 µM, first compound 0.316 µM
[4] = second compound 0.0316 µM, first compound 1 µM
[5] = second compound 0.0316 µM, first compound 3.16 µM
[6] = second compound 0.0316 µM, first compound 10 µM
[7] = second compound 0.1 µM, first compound 0.0316 µM
[8] = second compound 0.1 µM, first compound 0.1 µM
[9] = second compound 0.1 µM, first compound 0.316 µM
[10] = second compound 0.1 µM, first compound 1 µM
[11] = second compound 0.1 µM, first compound 3.16 µM
[12] = second compound 0.1 µM, first compound 10 µM
[13] = second compound 0.316 µM, first compound 0.0316 µM
[14] = second compound 0.316 µM, first compound 0.1 µM
[15] = second compound 0.316 µM, first compound 0.316 µM
[16] = second compound 0.316 µM, first compound 1 µM
[17] = second compound 0.316 µM, first compound 3.16 µM
[18] = second compound 0.316 µM, first compound 10 µM
[19] = second compound 1 µM, first compound 0.0316 µM
[20] = second compound 1 µM, first compound 0.1 µM
[21] = second compound 1 µM, first compound 0.316 µM
[22] = second compound 1 µM, first compound 1 µM
[23] = second compound 1 µM, first compound 3.16 µM
[24] = second compound 1 µM, first compound 10 µM
[25] = second compound 3.16 µM, first compound 0.0316 µM
[26] = second compound 3.16 µM, first compound 0.1 µM
[27] = second compound 3.16 µM, first compound 0.316 µM
[28] = second compound 3.16 µM, first compound 1 µM
[29] = second compound 3.16 µM, first compound 3.16 µM
[30] = second compound 3.16 µM, first compound 10 µM
[31] = second compound 10 µM, first compound 0.0316 µM
[32] = second compound 10 µM, first compound 0.1 µM
[33] = second compound 10 µM, first compound 0.316 µM
[34] = second compound 10 µM, first compound 1 µM
[35] = second compound 10 µM, first compound 3.16 µM
[36] = second compound 10 µM, first compound 10 µM
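Further: spheroids exposed to agents for seven days before readout.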
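Wherever viability, T/C is given: percent of vehicle control viability where 100% = DMSO wells.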

Structure (SMILES): COc1cc(C2c3cc4c(cc3C(OC3OC5COC(C)OC5C(O)C3O)C3COC(=O)C23)OCO4)cc(OC)c1O (stereo unspecified) + CN(C)c1ccc(Nc2c3ccc(NC(=O)CCN4CCCC4)cc3nc3cc(NC(=O)CCN4CCCC4)ccc23)cc1
- IC50 (second compound 0.0316 µM): > 10 µM
- IC50 (second compound 0.1 µM): > 10 µM
- IC50 (second compound 0.316 µM): > 10 µM
- IC50 (second compound 1 µM): > 10 µM
- IC50 (second compound 3.16 µM): > 10 µM
- IC50 (second compound 10 µM): > 10 µM
- viability, T/C [1]: 94.3%
- viability, T/C [2]: 90.8%
- viability, T/C [3]: 84.4%
- viability, T/C [4]: 87.6%
- viability, T/C [5]: 73.3%
- viability, T/C [6]: 72.6%
- viability, T/C [7]: 114%
- viability, T/C [8]: 87.2%
- viability, T/C [9]: 83.2%
- viability, T/C [10]: 81.8%
- viability, T/C [11]: 80.6%
- viability, T/C [12]: 69.4%
- viability, T/C [13]: 104%
- viability, T/C [14]: 82.9%
- viability, T/C [15]: 90.8%
- viability, T/C [16]: 89.5%
- viability, T/C [17]: 76.3%
- viability, T/C [18]: 64.2%
- viability, T/C [19]: 91.6%
- viability, T/C [20]: 86.1%
- viability, T/C [21]: 70.4%
- viability, T/C [22]: 76.6%
- viability, T/C [23]: 76%
- viability, T/C [24]: 60.4%
- viability, T/C [25]: 73.1%
- viability, T/C [26]: 63.1%
- viability, T/C [27]: 69.5%
- viability, T/C [28]: 56.6%
- viability, T/C [29]: 63.4%
- viability, T/C [30]: 57.8%
- viability, T/C [31]: 73.4%
- viability, T/C [32]: 74%
- viability, T/C [33]: 68.2%
- viability, T/C [34]: 82.6%
- viability, T/C [35]: 71.4%
- viability, T/C [36]: 56.6%

Structure (SMILES): Cc1cccc(N(C)C(=O)C2C(O)CCN2c2nc(C)cc(C(F)(F)F)c2C#N)c1 (stereo unspecified) + CN(C)c1ccc(Nc2c3ccc(NC(=O)CCN4CCCC4)cc3nc3cc(NC(=O)CCN4CCCC4)ccc23)cc1
- IC50 (second compound 0.0316 µM): > 10 µM
- IC50 (second compound 0.1 µM): > 10 µM
- IC50 (second compound 0.316 µM): > 10 µM
- IC50 (second compound 1 µM): > 10 µM
- IC50 (second compound 3.16 µM): > 10 µM
- IC50 (second compound 10 µM): > 10 µM
- viability, T/C [1]: 95.6%
- viability, T/C [2]: 98%
- viability, T/C [3]: 105%
- viability, T/C [4]: 92.7%
- viability, T/C [5]: 108%
- viability, T/C [6]: 97.7%
- viability, T/C [7]: 90.3%
- viability, T/C [8]: 103%
- viability, T/C [9]: 104%
- viability, T/C [10]: 90.4%
- viability, T/C [11]: 90%
- viability, T/C [12]: 101%
- viability, T/C [13]: 108%
- viability, T/C [14]: 86.2%
- viability, T/C [15]: 88.3%
- viability, T/C [16]: 87.1%
- viability, T/C [17]: 100%
- viability, T/C [18]: 102%
- viability, T/C [19]: 86%
- viability, T/C [20]: 80.5%
- viability, T/C [21]: 83.3%
- viability, T/C [22]: 82.4%
- viability, T/C [23]: 89.7%
- viability, T/C [24]: 83%
- viability, T/C [25]: 79.8%
- viability, T/C [26]: 68.8%
- viability, T/C [27]: 92.3%
- viability, T/C [28]: 81%
- viability, T/C [29]: 86.1%
- viability, T/C [30]: 86.5%
- viability, T/C [31]: 77%
- viability, T/C [32]: 79.3%
- viability, T/C [33]: 75.6%
- viability, T/C [34]: 80.2%
- viability, T/C [35]: 78.2%
- viability, T/C [36]: 56.5%

Structure (SMILES): Nc1ccn(C2OC(CO)C(O)C2(F)F)c(=O)n1 (stereo unspecified) + CN(C)c1ccc(Nc2c3ccc(NC(=O)CCN4CCCC4)cc3nc3cc(NC(=O)CCN4CCCC4)ccc23)cc1
- IC50 (second compound 0.0316 µM): > 10 µM
- IC50 (second compound 0.1 µM): > 10 µM
- IC50 (second compound 0.316 µM): > 10 µM
- IC50 (second compound 1 µM): > 10 µM
- IC50 (second compound 3.16 µM): 1.83 µM
- IC50 (second compound 10 µM): > 10 µM
- viability, T/C [1]: 79.8%
- viability, T/C [2]: 90.2%
- viability, T/C [3]: 71%
- viability, T/C [4]: 72.9%
- viability, T/C [5]: 63.8%
- viability, T/C [6]: 66.3%
- viability, T/C [7]: 102%
- viability, T/C [8]: 89.3%
- viability, T/C [9]: 72.8%
- viability, T/C [10]: 64.2%
- viability, T/C [11]: 68.6%
- viability, T/C [12]: 67%
- viability, T/C [13]: 89.5%
- viability, T/C [14]: 77.8%
- viability, T/C [15]: 74.9%
- viability, T/C [16]: 56.8%
- viability, T/C [17]: 74%
- viability, T/C [18]: 59.8%
- viability, T/C [19]: 72%
- viability, T/C [20]: 60.6%
- viability, T/C [21]: 75%
- viability, T/C [22]: 51.4%
- viability, T/C [23]: 65.2%
- viability, T/C [24]: 50.6%
- viability, T/C [25]: 76.8%
- viability, T/C [26]: 64.1%
- viability, T/C [27]: 60.3%
- viability, T/C [28]: 47.1%
- viability, T/C [29]: 52.5%
- viability, T/C [30]: 44.7%
- viability, T/C [31]: 72.6%
- viability, T/C [32]: 63.9%
- viability, T/C [33]: 47.9%
- viability, T/C [34]: 61.2%
- viability, T/C [35]: 52.1%
- viability, T/C [36]: 52.5%
